Key:
[1] = test system: STZ and HFD/STZ diabetic rats; test: Inner blood-retinal barrier function (Evans blue extravasation) in diabetic SD rats; format: in vivo, Sprague-Dawley rat; conditions: compared to rats on a HFD not administered peptide
Procedure: FIGS. 10A and 10B are charts showing the integrity of the blood-retinal barrier of normal rats (NRC), diabetic rats, and diabetic rats treated with Phe-D-Arg-Phe-Lys-NH2 (SS-20) or D-Arg-2′,6′-Dmt-Lys-Phe-NH2(SS-31), as analyzed by Evans blue extravasation. (A) diabetes induced by STZ; (B) diabetes induced by HFD/STZ.
(§1) A rat model of diabetes was established by combination of 6-week HFD and low dose of STZ (30 mg/kg) injection or a single high dose of STZ (65 mg/kg) in SD rats. See generally, K. Srinivasan, B. Viswanad, Lydia Asrat, C. L. Kaul and P. Ramarao, Combination of high-fat diet-fed and low-dose streptozotocin-treated rat: A model for type 2 diabetes and pharmacological screening, Pharmacological Research, 52(4): 313-320, 2005. Rats of the same batch fed with normal chow (NRC) were used as a control.
The effect of the aromatic-cationic peptides on the inner blood-retinal barrier function in the SD rat model was investigated.

[2] = test system: GTM cells; test: TMRM fluorescence (mitochondrial membrane potential), acute H2O2 injury, FACS, GTM cells; format: cell-based, human; conditions: n=4
Description: Methods to measure mitochondrial membrane potential using TMRM useful in the studies of the present invention have been described by Andrea Rasola and Massimo Geuna, A flow cytometry assay simultaneously detects independent apoptotic parameters, Cytometry 45:151-157, 2001; Mitoprobe™ JC-1 Kit for Flow Cytometry, Molecular Probes, Invitrogen, USA.
The mitochondrial membrane potential (Δψm) of HTM and GTM cells was investigated when those cells were exposed to hydrogen peroxide prior to administration of D-Arg-2′,6′-Dmt-Lys-Phe-NH2. First, the mitochondrial membrane potential was measured using confocal microscopy of cells labeled with tetramethylrhodamine methyl ester (TMRM, 500 nM×30 min) (FIG. 15). The mitochondrial membrane potential was also measured using flow cytometry (FIGS. 16-17) by labeling cells with the mitochondrion-selective probe tetramethylrhodamine methyl ester (TMRM, 500 nM×30 min).
The effects of D-Arg-2′,6′-Dmt-Lys-Phe-NH2 at mitigating acute oxidative injury in GTM and HTM cells was investigated. […] The percentage of fluorescence intensity compared to GTM control in H2O2, D-Arg-2′,6′-Dmt-Lys-Phe-NH2 10^−6M, D-Arg-2′,6′-Dmt-Lys-Phe-NH2 10^−7M, D-Arg-2′,6′-Dmt-Lys-Phe-NH2 10^−8M were 35.2±2.12%, 56.2±4.04%, 50.3±4.46%, 47.5±2.82% respectively, n=4; the HTM groups were 37.4±0.725%, 57.7±1.80%, 50.6±3.06%, 49.4±2.27% respectively, n=4. ** means P<0.01 compared to GTM H2O2 group; * means P<0.05 compared to GTM H2O2 group; ▴ ▴ ▴ means P<0.001 compared to HTM H2O2 group.

[3] = test system: GTM and HTM cells; test: Cell apoptosis induced by H2O2 (percentage of cells in Q2+Q4); format: cell-based, human; conditions: FIG. 38
Description: FIG. 38A-38D are graphs showing cell apoptosis of control and D-Arg-2′,6′-Dmt-Lys-Phe-NH2(SS-31)-treated groups valued by percentage of cells in the Q2+Q4 quadrant.
The percentage of intracellular ROS production compared to GTM control in GTM H2O2, D-Arg-2′,6′-Dmt-Lys-Phe-NH2 10^−6M, D-Arg-2′,6′-Dmt-Lys-Phe-NH2 10^−7M, D-Arg-2′,6′-Dmt-Lys-Phe-NH2 10^−8M groups were 146.0±2.27%, 84.5±8.75%, 102.0±5.69%, 133.0±5.17% respectively (n=3); the HTM groups were 153.0±3.46%, 79±2.39%, 91.8±3.49%, 129.0±8.24% respectively (n=4). P<0.001 GTM and HTM H2O2 Group compared to control; *** means P<0.001 compared to GTM H2O2 group; ▴ ▴ ▴ Means P<0.001 compared to HTM H2O2 group; ▴ ▴ means P<0.01 compared to HTM H2O2 group.

[4] = test system: STZ and HFD/STZ diabetic rats; test: Retinal microvessel changes in diabetic SD rats; format: in vivo, Sprague-Dawley rat; conditions: STZ or HFD/STZ rats
Procedure: as §1
The effect of the aromatic-cationic peptides on retinal microvessels in the SD rat model was investigated (FIGS. 11-12). Administration of D-Arg-2′,6′-Dmt-Lys-Phe-NH2 reduced retinal microvasular changes observed in STZ or HFD/STZ rats.

[5] = test system: Trx2 in HRECs; test: Trx2 expression in high glucose-treated HRECs (real-time PCR, Western blot); format: cell-based, human; conditions: 30 mM glucose co-treatment; 24 h and 48 h
Procedure: D-Arg-2′,6′-Dmt-Lys-Phe-NH2 increased the expression of Trx2 in the high glucose-treated HRECs. […] The mRNA expression level of Trx2 was measured by quantitative real-time PCR. Relative mRNA levels of Trx2 were normalized by 18S mRNA levels (* p<0.05 vs. the normal glucose medium group and the 30 mM high glucose treated group). Three independent samples were used for each time point.

[6] = test system: HFD/STZ diabetic rats; test: Lens opacity (cataract) in HFD/STZ rat model; format: in vivo, Sprague-Dawley rat; conditions: for Percentage of opacity / Percentage of severe opacity / Turbidity degree + (mildly opaque), number in group / Turbidity degree ++ (opaque), number in group / Turbidity degree +++ (moderately opaque), number in group / Turbidity degree ++++ (severely opaque), number in group / Turbidity degree − (transparent), number in group: HFD/STZ rat model
Procedure: as §1

[7] = test system: caspase-3 in HRECs; test: Caspase-3 protein expression in high glucose-treated HRECs (Western blot); format: cell-based, human; conditions: 30 mM glucose co-treatment; 24 h and 48 h; p<0.05
Procedure: The level of cleaved caspase-3 protein expression was measured by Western blot (FIG. 5A). When HRECs were exposed to 30 mM glucose for 24 h and 48 h, the level of caspase-3 expression increased dramatically.

In the case of D-Arg-2′,6′-Dmt-Lys-Phe-NH2, the “inner blood-retinal barrier function” value [1] is reported as “improved”, the “percentage of TMRM fluorescence intensity compared to GTM control” value (shortened to “percentage … to GTM control”) ([2]; 10^−6M) is reported as 56.2±4.04% and the “percentage … to GTM control” value ([2]; 10^−7M) is reported as 50.3±4.46%. The “percentage … to GTM control” value ([2]; 10^−8M) was 47.5±2.82%, the “amount of cell apoptosis induced by H2O2” value [3] was “reduced” and the retinal microvascular changes [4] was “reduced”. The “expression of Trx2” value [5] was “increased”, the “cataract formation in the lenses of diabetic rats” value ([6]; HFD/STZ and STZ models (FIGS. 6 and 7, Tables 13 and 14)) was “prevention or reversal of cataract formation” and the Percentage of opacity ([6]; 1 mg (Table 9: 1 mg/kg s.c.)) was 67.7%. The “Percentage of severe opacity” value ([6]; 1 mg (Table 9: 1 mg/kg s.c.)) was 0%, the “Turbidity degree + (mildly opaque), number in group” value (“Turbidity degree + (mildly opaque)” for short) ([6]; 1 mg (Table 9: 1 mg/kg s.c.)) was 1 and the “Turbidity degree ++ (opaque), number in group” value (“Turbidity degree ++ (opaque)” for short) ([6]; 1 mg (Table 9: 1 mg/kg s.c.)) was 1. The “Turbidity degree +++ (moderately opaque), number in group” value ([6]; 1 mg (Table 9: 1 mg/kg s.c.)) was 0, the “Turbidity degree ++++ (severely opaque), number in group” value (shortened to “Turbidity degree ++++ (severely opaque)”) ([6]; 1 mg (Table 9: 1 mg/kg s.c.)) was 0 and the “Turbidity degree − (transparent), number in group” value (shortened to “Turbidity degree − (transparent)”) ([6]; 1 mg (Table 9: 1 mg/kg s.c.)) was 1. The Percentage of opacity ([6]; 3 mg (Table 9: 3 mg/kg s.c.)) was 20.0%, the “Percentage of severe opacity” value ([6]; 3 mg (Table 9: 3 mg/kg s.c.)) was 20.0% and the “Turbidity degree + (mildly opaque)” value ([6]; 3 mg (Table 9: 3 mg/kg s.c.)) was 1. For the same substance, the “Turbidity degree ++ (opaque)” value ([6]; 3 mg (Table 9: 3 mg/kg s.c.)) was 0, the “Turbidity degree +++ (moderately opaque), number in group” value ([6]; 3 mg (Table 9: 3 mg/kg s.c.)) was 0 and the “Turbidity degree ++++ (severely opaque)” value ([6]; 3 mg (Table 9: 3 mg/kg s.c.)) was 1. The “Turbidity degree − (transparent)” value ([6]; 3 mg (Table 9: 3 mg/kg s.c.)) was 3, the Percentage of opacity ([6]; 10 mg (Table 9: 10 mg/kg s.c.)) was 14.3% and the “Percentage of severe opacity” value ([6]; 10 mg (Table 9: 10 mg/kg s.c.)) was 0%. For the same substance, the “Turbidity degree + (mildly opaque)” value ([6]; 10 mg (Table 9: 10 mg/kg s.c.)) was 1, the “Turbidity degree ++ (opaque)” value ([6]; 10 mg (Table 9: 10 mg/kg s.c.)) was 0 and the “Turbidity degree +++ (moderately opaque), number in group” value ([6]; 10 mg (Table 9: 10 mg/kg s.c.)) was 0. The “Turbidity degree ++++ (severely opaque)” value ([6]; 10 mg (Table 9: 10 mg/kg s.c.)) was 0, the “Turbidity degree − (transparent)” value ([6]; 10 mg (Table 9: 10 mg/kg s.c.)) was 6 and the caspase-3 protein level [7] was “marked decrease”.

Reference: US20180296630A1, “METHODS AND COMPOSITIONS FOR PREVENTING OR TREATING OPHTHALMIC CONDITIONS” (Stealth BioTherapeutics Corp, priority 2012, published 2018)
